Measurements published in US6706663B2, “Herbicidal 3-heterocyclic substituted benzisothiazole and benzisoxazole compounds” (Wyeth, priority 2000, dated 2004).

What was measured:
[1] = tested on: SAGPY (Sagittaria pygmaea); assay: Flooded paddy, preemergence weed control; type: in vivo, L.; conditions: rated 3-4 weeks after treatment, 0-9 rating scale
How it was run: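 Silt loam, sowing depth ≤0.5 cm; permanent flood 1.5–3 cm above soil; greenhouse culture after treatment. Readout: 0-9 visual scale (stand, vigor, malformation, size, chlorosis, appearance) vs control.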

[2] = tested on: CYPSE (Cyperus serotinus); assay: Flooded paddy, preemergence weed control; type: in vivo, Rottb.; conditions: rated 3-4 weeks after treatment, 0-9 rating scale
How it was run: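 Seeds or propagules were planted 0.5 cm deep in silt loam and flooded to 1.5–3 cm. Compounds in 50/50 v/v aqueous/acetone were pipetted into the flood water at about 0.0080 to 0.1250 kg/ha. After 3–4 weeks in the greenhouse, effect was rated visually on a 0–9 scale versus untreated control.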

[3] = tested on: ZEAMX (Corn, Field); assay: Postemergence herbicidal evaluation; type: in vivo, Zea mays, L.; conditions: postemergence
How it was run: (§1)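 Seedlings grown about two weeks in flats, sprayed, then kept under standard greenhouse care. Rated visually 4–5 weeks after treatment on a 0–9 scale (stand, vigour, malformation, size, chlorosis, overall appearance) relative to untreated control; repeat tests averaged.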

[4] = tested on: CASOB (Cassia obtusifolia); assay: Preemergence herbicidal evaluation; type: in vivo, L.; conditions: rated 4-5 weeks after treatment
How it was run: (§2)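 Scores (0–9) reflect visual comparison with control plants for stand, vigor, malformation, size and chlorosis. Seeds in potting soil received a post-planting spray of compound in aqueous acetone and grew in a greenhouse until assessment 4–5 weeks later.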

[5] = tested on: CHEAL (Chenopodium album); assay: Preemergence herbicidal evaluation; type: in vivo, L.; conditions: rated 4-5 weeks after treatment
How it was run: as §2

[6] = tested on: AMBEL (Ambrosia artemisifolia); assay: Preemergence herbicidal evaluation; type: in vivo, L.; conditions: rated 4-5 weeks after treatment
How it was run: as §2

[7] = tested on: ORYSAT (Rice, Tebonnet); assay: Preemergence herbicidal evaluation; type: in vivo, Oryza sativa, (L.) Tebonnet; conditions: rated 4-5 weeks after treatment
[8] = tested on: ABUTH (Abutilon theophrasti); assay: Preemergence herbicidal evaluation; type: in vivo, Medic.; conditions: rated 4-5 weeks after treatment
[9] = tested on: ORYSAT (Rice, Tebonnet); assay: Flooded paddy, post-transplant rice tolerance; type: in vivo, Oryza sativa, (L.) Tebonnet; conditions: flooded paddy, post-transplant rice, rated 3-4 weeks after treatment, 0-9 rating scale
How it was run: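 Two ten-day-old seedlings were transplanted into silt loam, flooded and held at 1.5 to 3 cm water above the soil before herbicide treatment. Pots stayed in the greenhouse at that water level. Injury was scored visually on a 0-9 scale versus untreated control.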

[10] = tested on: GLXMAW (Soybean, Williams); assay: Postemergence herbicidal evaluation; type: in vivo, Glycine max, (L.) Merr. cv Williams; conditions: postemergence
How it was run: as §1

[11] = tested on: ORYSAT (Rice, Tebonnet); assay: Postemergence herbicidal evaluation; type: in vivo, Oryza sativa, (L.) Tebonnet; conditions: postemergence
How it was run: as §1

[12] = tested on: ECHCG (Echinochloa crus-galli); assay: Postemergence herbicidal evaluation; type: in vivo, (L.) Beau; conditions: postemergence
How it was run: as §1

[13] = tested on: GALAP (Galium aparine); assay: Postemergence herbicidal evaluation; type: in vivo; conditions: postemergence
How it was run: as §1

[14] = tested on: TRZAWR (Wheat, Winter, cv Riband); assay: Preemergence herbicidal evaluation; type: in vivo, Triticum aestivum; conditions: rated 4-5 weeks after treatment
How it was run: as §2

[15] = tested on: CASOB (Cassia obtusifolia); assay: Postemergence herbicidal evaluation; type: in vivo, L.; conditions: postemergence
How it was run: as §1

[16] = tested on: CHEAL (Chenopodium album); assay: Postemergence herbicidal evaluation; type: in vivo, L.; conditions: postemergence
How it was run: as §1

[17] = tested on: AMBEL (Ambrosia artemisifolia); assay: Postemergence herbicidal evaluation; type: in vivo, L.; conditions: postemergence
How it was run: as §1

[18] = tested on: IPOHE (Ipomoea hederacea); assay: Preemergence herbicidal evaluation; type: in vivo, (L.) Jacq.; conditions: rated 4-5 weeks after treatment
[19] = tested on: ABUTH (Abutilon theophrasti); assay: Postemergence herbicidal evaluation; type: in vivo, Medic.; conditions: postemergence
How it was run: as §1

SMILES: Cc1nn(-c2nsc3ccc(-n4c(=O)cc(C(F)(F)F)n(C)c4=O)cc23)c(C)c1C [Compound 49, 1-methyl-6-(trifluoromethyl)-3-[3-(3,4,5-trimethylpyrazol-1-yl)-1,2-benzisothiazol-5-yl]uracil]
- herbicidal rating, SAGPY ([1]; rate 0.0320 kg/ha): 0.0
- herbicidal rating, SAGPY ([1]; rate 0.1250 kg/ha): 0.0
- herbicidal rating, CYPSE ([2]; rate 0.0320 kg/ha): 0.0
- herbicidal rating, CYPSE ([2]; rate 0.1250 kg/ha): 0.0
- ZEAMX herbicidal rating ([3]; rate 0.0320 kg/ha): 0.5
- ZEAMX herbicidal rating ([3]; rate 0.0620 kg/ha): 2.5
- Preemergence herbicidal rating CASOB ([4]; Rate 0.0620 kg/ha): 0.0
- Preemergence herbicidal rating CASOB ([4]; Rate 0.1250 kg/ha): 0.0
- Preemergence herbicidal rating CASOB ([4]; Rate 0.2500 kg/ha): 0.0
- Preemergence herbicidal rating CHEAL ([5]; Rate 0.0620 kg/ha): 0.0
- Preemergence herbicidal rating CHEAL ([5]; Rate 0.1250 kg/ha): 0.0
- Preemergence herbicidal rating CHEAL ([5]; Rate 0.2500 kg/ha): 0.0
- Preemergence herbicidal rating AMBEL ([6]; Rate 0.0620 kg/ha): 0.0
- Preemergence herbicidal rating AMBEL ([6]; Rate 0.1250 kg/ha): 0.0
- Preemergence herbicidal rating AMBEL ([6]; Rate 0.2500 kg/ha): 0.0
- Preemergence herbicidal rating ORYSAT ([7]; Rate 0.0620 kg/ha): 0.0
- Preemergence herbicidal rating ORYSAT ([7]; Rate 0.1250 kg/ha): 0.0
- Preemergence herbicidal rating ORYSAT ([7]; Rate 0.2500 kg/ha): 0.0
- Preemergence herbicidal rating ABUTH ([8]; Rate 0.0620 kg/ha): 0.0
- Preemergence herbicidal rating ABUTH ([8]; Rate 0.1250 kg/ha): 0.0
- Preemergence herbicidal rating ABUTH ([8]; Rate 0.2500 kg/ha): 0.0
- herbicidal rating, ORYSAT (rice tolerance) ([9]; rate 0.0320 kg/ha): 0.0
- herbicidal rating, ORYSAT (rice tolerance) ([9]; rate 0.1250 kg/ha): 0.0
- GLXMAW herbicidal rating ([10]; rate 0.0320 kg/ha): 1.5
- GLXMAW herbicidal rating ([10]; rate 0.0620 kg/ha): 2.5
- ORYSAT herbicidal rating ([11]; rate 0.0320 kg/ha): 0.5
- ORYSAT herbicidal rating ([11]; rate 0.0620 kg/ha): 1.5
- ECHCG herbicidal rating ([12]; rate 0.0320 kg/ha): 0.0
- ECHCG herbicidal rating ([12]; rate 0.0620 kg/ha): 0.0
- GALAP herbicidal rating ([13]; rate 0.0320 kg/ha): 0.0
- GALAP herbicidal rating ([13]; rate 0.0620 kg/ha): 0.0
- Preemergence herbicidal rating TRZAWR ([14]; Rate 0.0620 kg/ha): 0.0
- Preemergence herbicidal rating TRZAWR ([14]; Rate 0.1250 kg/ha): 0.0
- Preemergence herbicidal rating TRZAWR ([14]; Rate 0.2500 kg/ha): 0.0
- CASOB herbicidal rating ([15]; rate 0.0320 kg/ha): 0.0
- CASOB herbicidal rating ([15]; rate 0.0620 kg/ha): 0.0
- CHEAL herbicidal rating ([16]; rate 0.0320 kg/ha): 0.0
- CHEAL herbicidal rating ([16]; rate 0.0620 kg/ha): 0.0
- AMBEL herbicidal rating ([17]; rate 0.0320 kg/ha): 0.0
- AMBEL herbicidal rating ([17]; rate 0.0620 kg/ha): 0.0
- Preemergence herbicidal rating IPOHE ([18]; Rate 0.0620 kg/ha): 0.0
- Preemergence herbicidal rating IPOHE ([18]; Rate 0.1250 kg/ha): 0.0
- Preemergence herbicidal rating IPOHE ([18]; Rate 0.2500 kg/ha): 0.0
- ABUTH herbicidal rating ([19]; rate 0.0320 kg/ha): 0.0
- ABUTH herbicidal rating ([19]; rate 0.0620 kg/ha): 0.0

SMILES: C[C@@H]1C[C@H](C)OC(c2nsc3ccc(-n4c(=O)cc(C(F)(F)F)n(C)c4=O)cc23)O1 (stereo partly drawn) [Compound 50, 3-[3-[(4R,6S)-4,6-dimethyl-m-dioxan-2-yl]-1,2-benzisothiazol-5-yl]-1-methyl-6-(trifluoromethyl)uracil]
- herbicidal rating, SAGPY ([1]; rate 0.0080 kg/ha): 0.0
- herbicidal rating, SAGPY ([1]; rate 0.0320 kg/ha): 0.0
- herbicidal rating, SAGPY ([1]; rate 0.1250 kg/ha): 4.5
- herbicidal rating, CYPSE ([2]; rate 0.0320 kg/ha): 5.0
- herbicidal rating, CYPSE ([2]; rate 0.1250 kg/ha): 7.0
- ZEAMX herbicidal rating ([3]; rate 0.0320 kg/ha): 4.0
- ZEAMX herbicidal rating ([3]; rate 0.0620 kg/ha): 5.0
- Preemergence herbicidal rating CASOB ([4]; Rate 0.0620 kg/ha): 5.5
- Preemergence herbicidal rating CASOB ([4]; Rate 0.1250 kg/ha): 6.5
- Preemergence herbicidal rating CASOB ([4]; Rate 0.2500 kg/ha): 9.0
- Preemergence herbicidal rating CHEAL ([5]; Rate 0.0620 kg/ha): 9.0
- Preemergence herbicidal rating CHEAL ([5]; Rate 0.1250 kg/ha): 9.0
- Preemergence herbicidal rating CHEAL ([5]; Rate 0.2500 kg/ha): 9.0
- Preemergence herbicidal rating AMBEL ([6]; Rate 0.0620 kg/ha): 9.0
- Preemergence herbicidal rating AMBEL ([6]; Rate 0.1250 kg/ha): 9.0
- Preemergence herbicidal rating AMBEL ([6]; Rate 0.2500 kg/ha): 9.0
- Preemergence herbicidal rating ORYSAT ([7]; Rate 0.0620 kg/ha): 6.5
- Preemergence herbicidal rating ORYSAT ([7]; Rate 0.1250 kg/ha): 8.5
- Preemergence herbicidal rating ORYSAT ([7]; Rate 0.2500 kg/ha): 9.0
- Preemergence herbicidal rating ABUTH ([8]; Rate 0.0620 kg/ha): 9.0
- Preemergence herbicidal rating ABUTH ([8]; Rate 0.1250 kg/ha): 9.0
- Preemergence herbicidal rating ABUTH ([8]; Rate 0.2500 kg/ha): 9.0
- herbicidal rating, ORYSAT (rice tolerance) ([9]; rate 0.0080 kg/ha): 3.0
- herbicidal rating, ORYSAT (rice tolerance) ([9]; rate 0.0320 kg/ha): 6.5
- herbicidal rating, ORYSAT (rice tolerance) ([9]; rate 0.1250 kg/ha): 8.5
- GLXMAW herbicidal rating ([10]; rate 0.0320 kg/ha): 7.5
- GLXMAW herbicidal rating ([10]; rate 0.0620 kg/ha): 7.5
- ORYSAT herbicidal rating ([11]; rate 0.0320 kg/ha): 5.5
- ORYSAT herbicidal rating ([11]; rate 0.0620 kg/ha): 4.5
- ECHCG herbicidal rating ([12]; rate 0.0320 kg/ha): 3.0
- ECHCG herbicidal rating ([12]; rate 0.0620 kg/ha): 3.0
- GALAP herbicidal rating ([13]; rate 0.0320 kg/ha): 3.0
- GALAP herbicidal rating ([13]; rate 0.0620 kg/ha): 8.0
- Preemergence herbicidal rating TRZAWR ([14]; Rate 0.0620 kg/ha): 7.0
- Preemergence herbicidal rating TRZAWR ([14]; Rate 0.1250 kg/ha): 8.0
- Preemergence herbicidal rating TRZAWR ([14]; Rate 0.2500 kg/ha): 9.0
- CASOB herbicidal rating ([15]; rate 0.0320 kg/ha): 5.0
- CASOB herbicidal rating ([15]; rate 0.0620 kg/ha): 5.0
- CHEAL herbicidal rating ([16]; rate 0.0320 kg/ha): 8.0
- CHEAL herbicidal rating ([16]; rate 0.0620 kg/ha): 9.0
- AMBEL herbicidal rating ([17]; rate 0.0320 kg/ha): 9.0
- AMBEL herbicidal rating ([17]; rate 0.0620 kg/ha): 9.0
- Preemergence herbicidal rating IPOHE ([18]; Rate 0.0620 kg/ha): 8.0
- Preemergence herbicidal rating IPOHE ([18]; Rate 0.1250 kg/ha): 7.5
- Preemergence herbicidal rating IPOHE ([18]; Rate 0.2500 kg/ha): 9.0
- ABUTH herbicidal rating ([19]; rate 0.0320 kg/ha): 9.0
- ABUTH herbicidal rating ([19]; rate 0.0620 kg/ha): 9.0
